Where only a bound is given, the exact number is not on record here.

Experiment [1] deals with Z-138 cells. The experiment in a line: Z-138 Methylation Assay (In Cell Western for symmetric di-methyl arginine and DNA content). Conditions: Homo sapiens, Table D-2, read-out: ICW EC50. The format is cell-based. In outline:
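Z-138 cells at 50,000 cells/mL exposed to compound 96 h at 37 °C, then attached to poly-D-lysine plates, fixed with paraformaldehyde and probed with anti-symmetric di-methyl arginine plus DRAQ5 DNA stain. 800/700 nm ratio normalized to DMSO and 3 μM reference controls; IC50 from triplicate wells.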

Experiment [2] concerns Z-138 cells. Description: Z-138 Proliferation Assay (Cell Titer Glo, 5 days). The format is cell-based. Conditions: Homo sapiens, Table D-2. In outline:
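Exponentially growing Z-138 cells (10,000 cells/ml) in RPMI 1640 with 10% FBS are exposed to nine-point 3-fold dilutions (final top concentration 20 μM, 0.2% DMSO) for 5 days at 37° C. Viability is measured as ATP by CellTiter-Glo luminescence. The 50% inhibitory concentration comes from a 4-parameter fit.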

A word on the EC50: it is the concentration giving half of the maximal effect. Take `OC(CNc1cc(-c2ncc3ccn(C4CCNCC4)c3n2)ccn1)CN1CCc2ccccc2C1` (stereo not shown) [Compound D255]: the EC50 in the experiment with Z-138 cells [1] was less than 100 nM; with Z-138 cells [2], 101 to 1000 nM.
Taken in the same sequence, the figures for `CN1CCC(n2cnc3ccc(-c4ccnc(NCC(O)CN5CCc6ccccc6C5)c4)cc32)CC1` (stereo not shown) [Compound D252] were 101 to 1000 nM and 1000 to 10000 nM.
Regarding `CC(=O)N(CC(O)CN1CCc2ccccc2C1)c1cccc(-c2ccc3ncn(C)c3c2)c1` (stereo not shown) [Compound D273], the EC50 in the experiment on Z-138 cells [1] fell in the range of 101 to 1000 nM; in the experiment on Z-138 cells [2], 10000 to 40000 nM.
`Cn1cc2ccc(-c3cc(NCC(O)CN4CCc5ccccc5C4)ncn3)cc2n1` (stereo not shown) [Compound D224]: the EC50 in the experiment with Z-138 cells [1] is 101 to 1000 nM; with Z-138 cells [2], more than 20000 nM.
With `OC(COc1cccc(-c2ccc3nc[nH]c3c2)c1)CN1CCc2ccccc2C1` (stereo not shown) [Compound D83], the 50% effective concentration (EC50) with Z-138 cells [1] was in the range of 1000 to 10000 nM; in the experiment on Z-138 cells [2], 10000 to 40000 nM.
Taken in the same sequence, the figures for `OC(COc1ccc(C2CCCNC2)cc1)CN1CCc2ccccc2C1` (stereo not shown) [Compound D47] were 101 to 1000 nM and 1000 to 10000 nM.
Regarding `CN1CCC(n2cnc3ccc(-c4ccnc(NCC(O)CN5CCc6ccccc6C5)c4)cc32)C1` (stereo not shown) [Compound D250], the EC50 in the experiment on Z-138 cells [1] fell in the range of 101 to 1000 nM; in the experiment on Z-138 cells [2] it was 1000 to 10000 nM.
Turning to `Cn1cc2ccc(-c3ccnc(NCC(O)CN4CCc5ccccc5C4)c3)cc2n1` (stereo not shown) [Compound D236], the EC50 with Z-138 cells [1] lay in the range of 101 to 1000 nM; in the experiment with Z-138 cells [2] it was 1000 to 10000 nM.
The matching figures for `Cn1cnc2cc(-c3cccc(OCC(O)CN4CCc5ccccc5C4)c3)ccc21` (stereo not shown) [Compound D60]: 101 to 1000 nM and 10000 to 40000 nM.
Taken in the same sequence, the figures for `CN1CCC(n2cnc3ccc(-c4cccc(OCC(O)CN5CCc6ccccc6C5)c4)cc32)CC1` (stereo not shown) [Compound D221] were 101 to 1000 nM and 1000 to 10000 nM.
The matching figures for `CC1c2ccccc2CCN1CC(O)COc1cccc(-c2ccc3ncn(C)c3c2)c1` (stereo not shown) [Compound D80]: more than 20000 nM and 1000 to 10000 nM.
Turning to `CC(=O)N1CCC(n2ccc3cnc(-c4ccnc(NCC(O)CN5CCc6ccccc6C5)c4)nc32)CC1` (stereo not shown) [Compound D256], the EC50 is less than 100 nM with Z-138 cells [1] and 101 to 1000 nM in the experiment on Z-138 cells [2].
`COC(COc1cccc(CNC2CCCC2)c1)CN1CCc2ccccc2C1` (stereo not shown) [Compound D32]: the values for the EC50 in the experiment on Z-138 cells [1] and in the experiment with Z-138 cells [2] were more than 20000 nM and more than 40000 nM, respectively.
Taken in the same sequence, the figures for `Cn1ncc2ccc(-c3ccnc(NCC(O)CN4CCc5ccccc5C4)c3)cc21` (stereo not shown) [Compound D226] were 101 to 1000 nM and 1000 to 10000 nM.
Taken in the same sequence, the figures for `CN1CCC(n2cnc3ccc(-c4cccc(OCC(O)CN5CCc6ccccc6C5)c4)cc32)C1` (stereo not shown) [Compound D219] were 101 to 1000 nM and 1000 to 10000 nM.
The matching figures for `Cn1cnc2ccc(-c3cc(NCC(O)CN4CCc5ccccc5C4)ccn3)cc21` (stereo not shown) [Compound D217]: 1000 to 10000 nM and 10000 to 40000 nM.
Turning to `OC(CNc1cc(-c2ccc3ncn(C4CCOCC4)c3c2)ccn1)CN1CCc2ccccc2C1` (stereo not shown) [Compound D251], the EC50 lay in the range of 101 to 1000 nM in the experiment on Z-138 cells [1] and 1000 to 10000 nM in the experiment with Z-138 cells [2].
Taken in the same sequence, the figures for `O[C@@H](COc1cccc(-c2cccc3cccnc23)c1)CN1CCc2ccccc2C1` [Compound D257] were 101 to 1000 nM and 1000 to 10000 nM.
Taken in the same sequence, the figures for `O=C(Cn1ccc2cnc(-c3ccnc(NCC(O)CN4CCc5ccccc5C4)c3)nc21)N1CCCCC1` (stereo not shown) [Compound D246] were less than 100 nM and 101 to 1000 nM.
As for `OC(CNc1cccc(CNC2CCCC2)c1)CN1CCc2ccccc2C1` (stereo not shown) [Compound D39], the results for the EC50 in the experiment on Z-138 cells [1] and in the experiment with Z-138 cells [2] were 1000 to 10000 nM and more than 20000 nM, respectively.
The matching figures for `CN(CC(O)CN1CCc2ccccc2C1)c1cccc(CNC2CCCC2)c1` (stereo not shown) [Compound D53]: 101 to 1000 nM and 10000 to 40000 nM.
Consider `Cn1cnc2ccc(-c3cccc(OCC(O)CN4CCc5ccccc5C4)c3)cc21` (stereo not shown) [Compound D45], for which the half-maximal effective concentration (EC50) fell in the range of 101 to 1000 nM with Z-138 cells [1] and 1000 to 10000 nM in the experiment with Z-138 cells [2].
Regarding `Cn1cc2ccc(-c3cccc(NCC(O)CN4CCc5ccccc5C4)c3)nc2n1` (stereo not shown) [Compound D261], the EC50 is 101 to 1000 nM in the experiment on Z-138 cells [1] and 10000 to 40000 nM in the experiment on Z-138 cells [2].
